The target in assay [1] is lens aldose reductase (Bos taurus, UniProt P16116). Briefly: in vitro aldose reductase inhibition test (modified Hayman and Kinoshita procedure). The format is biochemical, bovine. The conditions noted are these: statement in words. From the text:
In the present case the procedure of Hayman and Kinoshita is modified in that the final chromatography step is omitted in the preparation of the enzyme from bovine lens.

For assay [2] the following is noted: Acheson et al., Gastroenterology, 37, 735 (1959); cited from earlier work.

The structures appear in SMILES notation.

In the case of `O=C(O)CCC(=O)c1ccc2c(c1)-c1cccc3cccc-2c13` [Florantyrone, γ-Oxo-8-fluoranthenebutanoic acid], in assay [1], the “inhibitor of lens aldose reductase” value is on record as “potent inhibitor of lens aldose reductase”. Also, in assay [2], the hydrocholeretic activity entry was “has hydrocholeretic activity”.

These data come from US4361582A, “Aldose reductase inhibition by γ-oxo-8-fluoranthenebutanoic acid” (Ayerst, McKenna & Harrison Inc., priority 1981, dated 1982).
